“Also recorded” adds a separate entry of the source.

In experiment [1] the test system is patients with ADCY5-related dyskinesia. The experiment can be described thus: Seven patients treated with caffeine; dyskinesia episodes and self-rated improvement. The following applies: 150 to 800 mg of caffeine per day, all cases. The experiment is classed as in vivo, human. Here is the method: Currently, seven patients are treated with caffeine with similar results with uptakes varying from 150 to 800 mg of caffeine per day. […] Four of them were asked to rate the improvement brought by caffeine on their involuntary movements, on a scale of 0 (no improvement) to 100% (major improvement with total disappearance of symptoms). All four reported an improvement of 80 to 100%.

In experiment [2] the test system is patient with ADCY5-related dyskinesia.
Text: The patient is a child with the disorder. Pregnancy, birth and first acquisitions were unremarkable. They developed diurnal and nocturnal episodes of hyperkinetic involuntary movements involving the face and upper limbs, lasting from a few seconds to ten minutes. There was a clear kinesigenic trigger for some of the episodes, others were exercise-induced, and a few were spontaneous. In addition, they were described as clumsy, and had difficulties in various activities of daily living such as fine motor tasks or riding a bike. Frequency of the episodes was around 30 per day, causing significant disruption of activities. […] Interictal neurological examination was normal except for some fleeting choreodystonic movements. Because of the co-occurrence of several types of paroxysmal dyskinesia, the patient was first tested for mutations in the SLC2A1 and ADCY5 genes. Genetic analysis was negative for SLC2A1 but found a mosaic heterozygous mutation in the ADCY5 gene (c.2088+1G>A), previously reported as pathogenic (Carapito et al., A de novo ADCY5 mutation causes early-onset autosomal dominant chorea and dystonia. Mov Disord. 2015; 30(3):423-7).
Caffeine was the first treatment tried.
A further experiment has as its system A2AR knockout mice. The following applies: cited from earlier work.

For `Cn1c(=O)c2c(ncn2C)n(C)c1=O` [caffeine, 1,3,7-trimethylxanthine], in experiment [1], the “effect on dyskinesia episodes” value was “reduction or a suppression of dyskinesia episodes”. In experiment [2] (after unknowing switch to decaffeinated coffee with reversal to baseline), the “effect of resuming caffeine intake after four days of decaffeinated coffee” value was “immediately restored the improvement”. For the same compound, the “effect on diurnal and nocturnal episodes of dyskinesia” value in experiment [2] (espresso in the morning, second espresso in the afternoon, half an espresso at bedtime, baseline around 30 episodes per day) was “next to complete resolution; also recorded: near-complete resolution”. The “remaining short and non-disruptive episodes during the day” value in experiment [2] (espresso morning, afternoon and half at bedtime, baseline around 30 episodes per day) is “at most one or two”. Besides, in experiment [2] (one espresso in the morning, approximately 100 mg of caffeine, child, c.2088+1G>A ADCY5 mutation), the “start of dramatic response after intake” value came out at 45 min. The wake-promoting effect entry in the experiment on A2AR knockout mice is listed as “abolished”.

(Values after patent US20220096486A1, “COMPOUNDS FOR USE IN THE TREATMENT OF ADCY5-RELATED DYSKINESIA” (ASSISTANCE PUBLIQUE - HOPITAUX DE PARIS, priority 2019, published 2022).)
